Columns and labels:
[1] = tested on: Mobiluncus curtisii ATCC 35241; test: MIC broth microdilution (Example 3); assay type: cell-based; conditions: planktonic, anaerobic
Description: (§1) The antimicrobial activity of CAms was also tested against Peptostreptococcus anaerobius ATCC 27337, Mobiluncus curtisii ATCC 35241 and Prevotella bivia ATCC 29303, all of which, in addition to G. vaginalis, are the most commonly isolated anaerobes from BV-infected women. These anaerobes were maintained within the anaerobic chamber and transferred daily into fresh sBHI. To prepare a stock solution, the CAm compounds were dissolved in ddH2O and incubated at 37° C. with shaking at 250 rpm for 10 min. Then, the solution was serially diluted twofold with sBHI broth to determine the MIC and with BHIG broth to identify the MIC-B/MBC-B against planktonic and biofilm cells, respectively. According to Clinical and Laboratory Standards Institute (CLSI 2010), the MIC is defined as the lowest concentration of antimicrobial compound producing no visible growth or complete inhibition of bacterial growth during 24 h. To determine MIC values, the broth microdilution assay was performed according to Algburi et al. (Algburi et al., 2015. Path Dis 73(5)) with minor modifications. Briefly, the overnight-grown cells were diluted with their suitable culture medium to approach ˜10^6 CFU/ml. The number of bacterial cells was identified using spot plate method (Turovskiy et al., 2012. Infect Dis Obstet Gynecol 2012:284762). The CAms were serially diluted twofold with sBHI into a non-tissue culture 96-well microplate plate (Falcon, Corning Incorporated, Corning, N.Y., USA) resulting in a final volume of 100 μl for each well. Aliquots of 100 μl of the diluted cell suspension (˜10^6 CFU/ml) were added to each well of a microplate that was treated with different concentrations of CAms. To avoid culture medium evaporation, 75 μl of mineral oil (Sigma-Aldrich, St. Louis, Mo.) was added to each treated well. The microplate was then transferred to the plate reader (Model 550, Bio-Rad Laboratories, Hercules, Calif., USA) and incubated at 37° C. for 24-36 h. The kinetic reading was statistically analyzed, and the MIC and sub-MIC of each CAm compound were determined.

[2] = tested on: Peptostreptococcus anaerobius ATCC 27337; test: MIC broth microdilution (Example 3); assay type: cell-based; conditions: planktonic, anaerobic
Description: as §1

[3] = tested on: Prevotella bivia ATCC 29303; test: MIC broth microdilution (Example 3); assay type: cell-based; conditions: planktonic, anaerobic
Description: as §1

L. plantarum biofilm = test: Minimum biofilm bactericidal concentration (MBC-B); assay type: cell-based, Lactobacillus plantarum; conditions: pre-formed biofilm, ≥3 log reduction
Description: G. vaginalis ATCC 14019 strain was grown overnight in Brain Heart Infusion broth (Difco, Sparks, Md.) supplemented with 3% horse serum (sBHI) (JRH Biosciences, KS), while BHI supplemented with 1% glucose (BHIG) was used for biofilm formation assays. Each experiment using G. vaginalis was performed anaerobically (10% hydrogen, 5% carbon dioxide, and 85% nitrogen) within anaerobic glove boxes (Coy Laboratory Products, Inc., Grass Lake, Mich., USA). Three species of vaginal Lactobacillus were used in this study to evaluate the possible harmful effects of CAms on beneficial bacteria: Lactobacillus plantarum ATCC 39268, Lactobacillus rhamnosus 160 (provided by Dr. Aroutcheva, Rush University Medical Center) and Lactobacillus gasseri ATCC 33323; all were grown for 18-24 h in DeMan, Rogosa and Sharpe broth (MRS Difco B D, Franklin Lakes, N.J., USA) under aerobic conditions at 37° C. For lactobacilli biofilm formation, MRS broth supplemented with 1% glucose and 2% sucrose (Fisher Scientific, Waltham, Mass., USA) was utilized.
This assay was performed according to Algburi et al. (Algburi et al., 2015. Path Dis 73(5)) with minor modifications: the overnight-grown G. vaginalis was diluted to approximately 10^7 CFU/ml. For the biofilm formation assay, aliquots of 200 μl were added into a 96-well tissue culture microplate, sealed by amplification tape (Nalge Nunc International, Rochester, N.Y., USA) and incubated for 24-36 h at 37° C. After incubation, the planktonic cells were removed by gently washing the biofilm twice with 200 μl of fresh broth. The biofilm was then treated with 200 μl of a predetermined concentration of the tested compound. The microplate was incubated for 24 h at 37° C. under anaerobic conditions. After incubation, the antimicrobials (supernatant) were discarded and the biofilm was washed twice with fresh BHIG broth. The biofilm was then disrupted by vigorous pipetting, in order to determine the number of biofilm-associated cells using the spot plate method.

biofilms of G. vaginalis = test: Checkerboard assay, biofilm cells; assay type: cell-based, Gardnerella vaginalis; conditions: for MBC-B of CAm in combination with metronidazole: 24 h
Description: For biofilm formation, the overnight culture of G. vaginalis was diluted to approximately 10^7 CFU/ml and 200 μl was transferred into a 96-well tissue culture microplate and incubated anaerobically at 37° C. for 24-36 h. Following biofilm formation and removal of non-adherent cells by washing the biofilm twice with BHIG, each antimicrobial was diluted twofold separately with BHIG broth into two 96-white deep-well microplates. From each dilution of antimicrobial B, 125 μL was added horizontally over 125 μL of antimicrobial A (see FIG. 1 of Algburi et al., 2015. Path Dis 73(5)). From each combination, 200 μL samples were added to the biofilm in sequence, and the microplate was incubated for 24 h at 37° C. under anaerobic conditions. The spot plate method was utilized for counting the number of CFU/ml and evaluating the bactericidal activity (MBC-B) of each antimicrobial combination against biofilm-associated G. vaginalis. Isobolograms were used to analyze the nature of antimicrobial interaction, which is classified as synergistic, antagonistic or additive activity against the planktonic and biofilm cells.
Isobolograms were used to compare the MIC and MBC-B values of each antimicrobial alone with its MIC and MBC-B values in combination with other antimicrobials. The point on the axis (X) refers to MIC or MBC-B values of the first antimicrobial with the coordinates (0, x), and the point on the axis (Y) represents the MIC or MBC-B values of the second antimicrobial with the coordinates (y, 0) when they used alone. The two MIC or MBCs-B values are connected by a dashed line (Turovskiy Y, Chikindas M L. 2011 Probiotics Antimicrob Proteins 3:144-149). The MICs or MBCs-B of each antimicrobial combination are plotted as dots on the graph. Results are expressed according to the locations of these dots from the line that connects MICs or MBCs-B of the first and second antimicrobials. When MICs or MBCs-B values are located under the line, the two combining antimicrobials are synergized, but antagonized against the tested microorganism when these dots of interaction are above. An additive effect is observed when these dots are located on the line.

Row | SMILES | MIC M. curtisii [1] [µM] | MIC Pep. anaerobius [2] [µM] | MIC P. bivia [3] [µM] | MBC-B L. plantarum (L. plantarum biofilm) [µM] | MBC-B of CAm when used alone (biofilms of G. vaginalis) [µM] | MBC-B of CAm in combination with metronidazole (biofilms of G. vaginalis) [µM]
1 | CCCCCCCCCCOC(C(=O)NCCN)C(OCCCCCCCCCC)C(=O)NCCN.Cl.Cl (stereo not drawn) [5b] | 5.4 | 1.6 | 6.6 | >850 | 340 | 25.7
2 | CCCCCCCC(=O)OC(C(=O)NCCN)C(OC(=O)CCCCCCC)C(=O)NCCN.Cl.Cl (stereo not drawn) [8a] | 93.1 | 13.9 | 111.6 | >890 | 92.7 | 26.9
3 | CCCCCCCCCC(=O)OC(C(=O)NCCN)C(OC(=O)CCCCCCCCC)C(=O)NCCN.Cl.Cl (stereo not drawn) [8b] | 6.3 | 3.1 | 6.3 | >810 | 67.7 | 6.3

From patent US10759740B2, “Antibacterial agents” (Rutgers, The State University of New Jersey, priority 2016, dated 2020)
